Measured values as given in patent US20240207329A1, “METHODS OF TREATING ADENOCARCINOMA WITH HUMAN MICROBIOTA DERIVED N-ACYL AMIDES” (ICAHN SCHOOL OF MEDICINE AT MOUNT SINAI, priority 2021, published 2024).

Legend:
Tumor organoids = experiment: Treatment of mouse tumor organoids with N-acyl amides, end-point viability by CellTiter-Glo; type: cell-based, mice; conditions: for IC50: mouse tumor organoids, viability 3 days post-drug addition, CellTiter-Glo, triplicate; for liver cancer growth and/or survival: tumor organoid dose-response curves, FIG. 7
Experimental: Tumor organoids were prepared from the animal model described in Example 1 (i.e. tissue from control animals was isolated at 24 weeks and tumor organoids prepared therefrom). Tumor organoids were generated according to protocols known in the art (Broutier, L., Andersson-Rolf, A., Hindley, C J., Boj, S F., Clevers, H., et al., Culture and establishment of self-renewing human and mouse adult liver and pancreas 3D organoids and their genetic manipulation. Nat Protoc. 2016. 11(9): 1724-43 and Broutier, L. Mastrogiovanni, G., Verstegen, M M., Francies, H E., Gavarro, L M., et al., Human primary liver cancer-derived organoid cultures for disease modeling and drug screening. Nat Med. 2017 23(12): 1424-1435). Liver biopsies were digested in sterile PBS containing 0.125 mg/mL collagenase IV, 0.125 mg/mL dispase II, and 0.1 mg/mL DNaseI. Digestions were performed at 37° C. for at least 4 hours. Tissue dissociate was filtered through a 70 μm strainer and washed with basal media (Advanced DMEM/F12, 1% L-glutamine, 1% penstrep, 1 mM HEPES). Cells were counted, washed, and resuspended at 50,000 cells/50 μL matrigel. 50 μL matrigel droplets were plated in 24-well plates and allowed to polymerize for 15 minutes at 37° C. Tumor dissociate was cultured in tumor media (basal media, 1:50 B27, 1 mM N-acetylcysteine, 10 mM nicotinamide, 10 nM recombinant human [Leu^15]-gastrin I, 50 ng/mL recombinant murine EGF, 100 ng/mL recombinant human FGF10, and 50 ng/mL recombinant human HGF) until organoids formed. To passage, organoids were removed from matrigel in basal media, spun down at 300 g for 5 minutes, mechanically broken via passage through a 21 g needle, washed in basal media, and re-plated in matrigel.
96-wells plates were coated with a 50:50 solution of matrigel:basal media, which was allowed to polymerize for 15 minutes at 37° C. Tumor organoids were mechanically broken as described above, counted, and seeded at 1,000 cells/well in tumor media. Following overnight incubation, serial drug dilutions were added to the tumor organoids. […] End-point viability was analyzed 3-days post-drug addition using CellTiter-Glo. Each treatment was performed in triplicate.

[1] = tested on: Human hepatocellular cancer (HCC) organoids; experiment: Treatment of human HCC and cholangiocarcinoma organoids, anti-tumor effects; type: cell-based; conditions: triplicate
Experimental: Human hepatocellular cancer (HCC) organoids were prepared from patients with non alcoholic steatohpepatitis (NASH), hepatitis B virus (HBV) and hepatitis C virus (HCV). The HCC organoids were generated according to protocols known in the art (Broutier, L., Andersson-Rolf, A., Hindley, C J., Boj, S F., Clevers, H., et al., Culture and establishment of self-renewing human and mouse adult liver and pancreas 3D organoids and their genetic manipulation. Nat Protoc. 2016. 11(9): 1724-43 and Broutier, L. Mastrogiovanni, G., Verstegen, M M., Francies, H E., Gavarro, L M., et al., Human primary liver cancer-derived organoid cultures for disease modeling and drug screening. Nat Med. 2017 23(12): 1424-1435). Organoids were also prepared from a single patient with cholangiocarcinoma (ICC). N-oleoyl serinol and N-oleoyl glycine were assayed for anti-tumor effects. Each treatment was performed in triplicate. […] N-oleoyl serinol was active specifically against HCCC organoids from patients with NASH.

Compound	IC50 (Tumor organoids)	IC50 (Tumor organoids; 72 h)	anti-tumor effects ([1]; all organoid cell lines (HCC from NASH, HBV, HCV patients; cholangiocarcinoma))	anti-tumor effects ([1]; HCC organoids from patients with NASH)	liver cancer growth and/or survival (Tumor organoids)
CCCCCCCCCCCCCCCC(=O)NCC(=O)O [N-palmitoyl glycine]	> 100000 nM	–	–	–	–
CCCCCCCC/C=C\CCCCCCCC(=O)NCC(=O)O [N-oleoyl glycine]	–	> 100000 nM	inactive	–	–

Continued, in another order:

IC50 (Tumor organoids)	IC50 (Tumor organoids; 72 h)	Compound	anti-tumor effects ([1]; all organoid cell lines (HCC from NASH, HBV, HCV patients; cholangiocarcinoma))	anti-tumor effects ([1]; HCC organoids from patients with NASH)	liver cancer growth and/or survival (Tumor organoids)
–	> 100000 nM	CCCCCCCCCCCCCCCC(=O)NC(CO)CO [palmitoyl serinol]	–	–	–
–	33.3 nM	CCCCCCCC/C=C\CCCCCCCC(=O)NC(CO)CO [N-oleoyl serinol]	–	active	inhibit or reduce
–	126 nM	CCCCCCCC/C=C\CCCCCCCC(=O)NCCO [N-oleoyl ethanolamide, reference compound]	–	–	inhibit or reduce
